Experimental data as given in patent US12570606B2, “Myeloperoxidase imaging agents” (The General Hospital Corporation, priority 2016, dated 2026).
Where two headings read alike, the source gives them in different places.

Tests used:
[1] = Dynamic PET study of Compound 9 over 3 hours; format: in vivo, mouse; details: dynamic study over 3 hours
MPO = target: T1, MPO (Homo sapiens, UniProt P05164); assay: MPO-PET matrigel implantation imaging in mice; format: in vivo, mouse
T1 sequence (P05164 49-745): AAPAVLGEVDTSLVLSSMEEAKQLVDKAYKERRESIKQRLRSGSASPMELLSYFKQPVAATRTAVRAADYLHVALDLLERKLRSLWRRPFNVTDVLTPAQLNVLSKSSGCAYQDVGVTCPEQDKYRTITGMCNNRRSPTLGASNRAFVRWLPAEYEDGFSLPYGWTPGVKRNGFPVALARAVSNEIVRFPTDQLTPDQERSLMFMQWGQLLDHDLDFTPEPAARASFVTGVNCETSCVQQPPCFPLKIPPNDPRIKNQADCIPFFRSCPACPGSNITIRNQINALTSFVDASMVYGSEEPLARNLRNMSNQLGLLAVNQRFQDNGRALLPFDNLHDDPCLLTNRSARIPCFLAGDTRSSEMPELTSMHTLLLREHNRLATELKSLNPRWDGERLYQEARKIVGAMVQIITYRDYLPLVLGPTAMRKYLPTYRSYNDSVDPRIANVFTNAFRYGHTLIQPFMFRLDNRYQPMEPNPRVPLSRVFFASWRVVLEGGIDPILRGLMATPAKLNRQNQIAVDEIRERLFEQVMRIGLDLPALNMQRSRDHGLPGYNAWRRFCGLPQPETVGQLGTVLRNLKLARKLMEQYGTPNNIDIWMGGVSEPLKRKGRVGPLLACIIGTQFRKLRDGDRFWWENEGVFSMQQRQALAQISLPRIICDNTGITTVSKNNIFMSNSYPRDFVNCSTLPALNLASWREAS
Protocol: 300 μL of 1:1 mixture of matrigel and minimal essential medium (MEM) containing GOX and/or different concentrations of MPO (0, 15 μL, 30 μL) was injected subcutaneously into the ventral aspect of the thighs of the mouse. After 30 min, 300-600 μCi of MPO Compound 9 was injected intravenously. After 2 h, the mice were scanned using PET scanning.
To validate the efficacy of the MPO PET agents for in vivo applications, matrigel implantation experiments were performed by embedding MPO in matrigel along with glucose oxidase (GOX) as H2O2 donor. Matrigel is a gelatinous protein mixture that is liquid at 0° C. but forms a gel at body temperature while remaining diffusible to molecules from the bloodstream when injected into living animals (see e.g., Chen et al, Radiology, 2006, 240(2):473-481). The MPO/matrigel mixtures were injected subcutaneously to the thighs of the mice followed by injection of the MPO PET tracers 30 min later. […] The signal of MPO side was around 1.7 fold higher compared to that of control side.
To verify the specificity of Compound 9 over MPO, different concentrations of MPO (0, 15 μL, 30 μL) were embedded in matrigel for the implantation experiments.

[2] = Pharmacokinetics and biodistribution after i.v. injection; format: in vivo, wild-type C57BL/6 mice; details: for half-life: C57BL/6, mouse, blood, iv, i.v. tail vein
Protocol: The pharmacokinetic and biodistribution of Compound 9 was evaluated in wild-type C57BL/6 mice. After systemic intravenous (i.v.) injection via the tail vein, blood samples were collected to determine clearance rate of Compound 9 from the blood. The major organs of the mouse were harvested and the radioactivity was measured.

[3] = Blood brain barrier assay, PET brain uptake; format: in vivo, Female C57Bl/6J mice
Protocol: Female C57Bl/6J mice were injected intravenously with either 3′-deoxy-3′-^18F-fluorothymidine (FLT) or Compound 9 (300-600 μCi). The mice were imaged 2 hours after the PET tracers were injected.

- Blood-brain barrier crossing (brain data) [1]: can cross the blood-brain barrier
- PET signal versus MPO concentration (MPO; MPO 0, 15 μL, 30 μL embedded in matrigel): linear increase in signal
- PET signal of MPO side compared to control side (MPO; matrigel with GOX+MPO vs GOX only in mouse thighs, scan 2 h after i.v. tracer): around 1.7 fold
- half-life ([2]; two-phase exponential decay model, read-out: Blood short (fast) half-life): 0.26 min
- half-life ([2]; two-phase exponential decay model, read-out: Blood slow half-life): 4.66 min
- Share of clearance accounted for by the fast half-life ([2]; two-phase exponential decay model): 94.7%
- Crossing of the blood brain barrier ([3]; intact BBB): can cross intact BBB
Compound: O=C(Cc1c[nH]c2ccc(O)cc12)NC(Cc1c[nH]c2ccc(O)cc12)C(=O)NCCOCCOCC[18F] (stereo not shown) [Compound 9]
- Background, organ uptake and defluorination (MPO; matrigel PET imaging in mice): high ratio of signal to background, lower liver and heart uptake and no observed defluorination
- Biodistribution of radioactivity in organs ([2]; major organs harvested after i.v. injection): the liver and kidney showed the highest radioactivity, followed by bone and lymph
- Uptake in the brain (SUV, FIG. 12) ([3]; 300-600 μCi i.v., imaged 2 hours after injection): higher uptake in the brain compared to FLT
